Turning to `N#Cc1ccc(N2CCCN(c3ccnc4sc(C(N)=O)c(N)c34)CC2)cc1` [Example 62, 3-amino-4-[4-(4-cyanophenyl)-1,4-diazepan-1-yl]thieno[2,3-b]pyridine-2-carboxamide], the melting point fell in the range of 151 to 153 °C.

`NC(=O)c1sc2nccc(NCc3ccccc3)c2c1N` [Example 7, 3-amino-4-(benzylamino)thieno[2,3-b]pyridine-2-carboxamide] yielded a melting point of 260 to 262 °C.

`NC(=O)c1sc2nccc(N3CCCC3)c2c1N` [Example 13, 3-amino-4-pyrrolidin-1-ylthieno[2,3-b]pyridine-2-carboxamide] showed a melting point of 275 to 283 °C.

Regarding `CCCNc1ccnc2sc(C(N)=O)c(N)c12` [Example 4, 3-amino-4-(propylamino)thieno[2,3-b]pyridine-2-carboxamide], the melting point was 214 to 215 °C.

Turning to `CC(C)(C)OC(=O)N1CCCN(c2ccnc3sc(C(N)=O)c(N)c23)CC1` [Example 55, tert-butyl 4-[3-amino-2-(aminocarbonyl)thieno[2,3-b]pyridin-4-yl]-1,4-diazepane-1-carboxylate], the melting point is 177 to 178 °C.

With `Cc1ccc(N2CCN(c3ccnc4sc(C(N)=O)c(N)c34)CC2)cc1` [Example 46, 3-amino-4-[4-(4-methylphenyl)piperazin-1-yl]thieno[2,3-b]pyridine-2-carboxamide], the melting point was 270 °C (dec.).

Regarding `NC(=O)c1sc2nccc(N3CCN(c4ncccn4)CC3)c2c1N` [Example 44, 3-amino-4-(4-pyrimidin-2-ylpiperazin-1-yl)thieno[2,3-b]pyridine-2-carboxamide], the melting point is 280 °C (dec.).

Consider `NC(=O)c1sc2nccc(N3CCN(C(c4ccccc4)c4ccccc4)CC3)c2c1N` [Example 48, 3-amino-4-(4-benzhydrylpiperazin-1-yl)thieno[2,3-b]pyridine-2-carboxamide], for which the melting point fell in the range of 225 to 233 °C.

As to `NC(=O)c1sc2nccc(N3CC[C@@H]4CCCC[C@H]4C3)c2c1N` (relative stereo) [Example 28, 3-amino-4-(trans-perhydroisoquinolin-2-yl)thieno[2,3-b]pyridine-2-carboxamide], the melting point was 285 to 288 °C.

The compound `Cc1cc(N2CCN(c3ccccc3)CC2)c2c(N)c(C(N)=O)sc2n1` [Example 75, 3-amino-6-methyl-4-(4-phenylpiperazin-1-yl)thieno[2,3-b]pyridine-2-carboxamide] returned a melting point of 247 to 250 °C.

As for `CCN1CCN(c2ccnc3sc(C(N)=O)c(N)c23)CC1` [Example 40, 3-amino-4-(4-ethylpiperazin-1-yl)thieno[2,3-b]pyridine-2-carboxamide], the melting point lay in the range of 218 to 219 °C.

Take `Cc1cc(N(C)C)c2c(N)c(C(N)=O)sc2n1` [Example 3, 3-amino-4-(dimethylamino)-6-methylthieno[2,3-b]pyridine-2-carboxamide]: the melting point lay within 167 to 170 °C.

Compound `CS(=O)(=O)N1CCCN(c2ccnc3sc(C(N)=O)c(N)c23)CC1` [Example 104, 3-amino-4-[4-(methylsulfonyl)-1,4-diazepan-1-yl]thieno[2,3-b]pyridine-2-carboxamide] returned a melting point of 214 to 217 °C.

As to `Cl.Cl.NC(=O)c1sc2nccc(N3CCCNCC3)c2c1N`, the melting point is more than 295 °C.

`NC(=O)c1sc2nccc(N3CCN(c4ccccn4)CC3)c2c1N` [Example 45, 3-amino-4-(4-pyridin-2-ylpiperazin-1-yl)thieno[2,3-b]pyridine-2-carboxamide] returned a melting point of 266 to 270 °C.

As for `NC(=O)c1sc2nccc(NC3CCCCCC3)c2c1N` [Example 12, 3-amino-4-(cycloheptylamino)thieno[2,3-b]pyridine-2-carboxamide], the melting point was 206 to 208 °C.

`Cc1ccc(N2CCCN(c3ccnc4sc(C(N)=O)c(N)c34)CC2)cc1[N+](=O)[O-]` [Example 90, 3-amino-4-[4-(4-methyl-3-nitrophenyl)-1,4-diazepan-1-yl]thieno[2,3-b]pyridine-2-carboxamide] came in with a melting point of 114 to 117 °C.

The compound `NC(=O)c1sc2nccc(N3CCCN(c4ccc(OC(F)(F)F)cc4)CC3)c2c1N` [Example 87, 3-amino-4-{4-[4-(trifluoromethoxy)phenyl]-1,4-diazepan-1-yl}thieno[2,3-b]pyridine-2-carboxamide] returned a melting point of 163 to 165 °C.

Turning to `Cc1cccc(N2CCN(c3ccnc4sc(C(N)=O)c(N)c34)CC2C)c1` (centres unmarked) [Example 95, 3-amino-4-[3-methyl-4-(3-methylphenyl)piperazin-1-yl]thieno[2,3-b]pyridine-2-carboxamide], the melting point lay in the range of 215 to 217 °C.

Turning to `NC(=O)c1sc2nccc(N3CCN(c4ccc(Cl)cc4)CC3)c2c1N` [Example 52, 3-amino-4-[4-(4-chlorophenyl)piperazin-1-yl]thieno[2,3-b]pyridine-2-carboxamide], the melting point was 297 °C (dec.).

Consider `Cc1ccccc1N1CCCN(c2ccnc3sc(C(N)=O)c(N)c23)CC1` [Example 70, 3-amino-4-[4-(2-toluyl)-1,4-diazepan-1-yl]thieno[2,3-b]pyridine-2-carboxamide], for which the melting point was 206 to 209 °C (dec.).

For `NC(=O)c1sc2nccc(N3CCC(O)CC3)c2c1N` [Example 19, 3-amino-4-(4-hydroxypiperidin-1-yl)thieno[2,3-b]pyridine-2-carboxamide], the melting point was in the range of 239 to 241 °C.

Take `NC(=O)c1sc2nccc(N3CCN(C(=O)c4ccccc4)CC3)c2c1N` [Example 51, 3-amino-4-(4-benzoylpiperazin-1-yl)thieno[2,3-b]pyridine-2-carboxamide]: the melting point is more than 300 °C.

In the case of `NC(=O)c1sc2nccc(N3CCCN(c4ccc(F)c(Cl)c4)CC3)c2c1N` [Example 81, 3-amino-4-[4-(3-chloro-4-fluorophenyl)-1,4-diazepan-1-yl]thieno[2,3-b]pyridine-2-carboxamide], the melting point was in the range of 181 to 184 °C.

Consider `C[C@@H]1CN(c2ccnc3sc(C(N)=O)c(N)c23)C[C@H](C)O1` [Example 23, 3-amino-4-(cis-2,6-dimethylmorpholin-4-yl)thieno[2,3-b]pyridine-2-carboxamide], for which the melting point lay in the range of 242 to 244 °C.

For `NC(=O)c1sc2nccc(N3CCCN(c4ccc(Cl)nn4)CC3)c2c1N` [Example 105, 3-amino-4-[4-(6-chloropyridazin-3-yl)-1,4-diazepan-1-yl]thieno[2,3-b]pyridine-2-carboxamide], the melting point lay within 232 to 234 °C.

Regarding `NC(=O)c1sc2nccc(N3CCCCCCC3)c2c1N` [Example 26, 3-amino-4-azocan-1-ylthieno[2,3-b]pyridine-2-carboxamide], the melting point lay in the range of 222 to 224 °C.

For the compound `NC(=O)c1sc2nccc(N3CCCN(Cc4ccccc4)CC3)c2c1N` [Example 56, 3-amino-4-(4-benzyl-1,4-diazepan-1-yl)thieno[2,3-b]pyridine-2-carboxamide], the melting point lay within 194 to 195 °C.

For the compound `NC(=O)c1sc2nccc(N3CCOCC3)c2c1N` [Example 22, 3-amino-4-morpholin-4-ylthieno[2,3-b]pyridine-2-carboxamide], the melting point was 232 to 234 °C.

The record behind these values is US20070219234A1, “Thienopyridine Derivatives” (priority 2004, published 2007).
